Laboratory results taken from patent US8802597B2, “Herbicidal pyrimidines” (E I du Pont de Nemours and Company, priority 2003, dated 2014).

Tests used:
Experiment in all cases: Test E flooded paddy water application
Format in all cases: in vivo
Settings in all cases: Flood, 21 days, scale 0 to 100 (0 no effect, 100 complete control)
[1] = system: barnyardgrass (Echinochloa crus-galli)
Outline: (§1)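 Greenhouse pots of Tama silt loam with weeds and rice at 2.0–2.5-leaf stage, flooded to 3 cm; compounds applied directly into paddy water, depth maintained. Visual rating versus untreated controls after 21 days, 0 (no effect) to 100 (complete control); 29.5/26.7 °C, 16-h photoperiod.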

[2] = system: bearded (brdd.) sprangletop (Leptochloa fusca ssp. fascicularis)
Outline: as §1

[3] = system: ducksalad (Heteranthera limosa)
Outline: as §1

[4] = system: early watergrass (Echinochloa oryzoides)
Outline: as §1

[5] = system: junglerice (Echinochloa colona)
Outline: as §1

[6] = system: late watergrass (Echinochloa oryzicola)
Outline: as §1

[7] = system: purple redstem (Ammannia coccinea)
Outline: as §1

[8] = system: smallflower umbrella sedge (Cyperus difformis)
Outline: as §1

[9] = system: transplanted rice seedlings (Oryza sativa cv. ‘Japonica-M202’)
Outline: as §1

[10] = system: water seeded rice seedlings (Oryza sativa cv. ‘Japonica-M202’)
Outline: as §1

In the case of `Cc1ccc(-c2nc(N)c(Cl)c(C(=O)O)n2)cc1` [Compound 91], the “Barnyardgrass plant response rating” value ([1]; 32 g ai/ha) was 0, the “Barnyardgrass plant response rating” value ([1]; 64 g ai/ha) was 10 and the “Barnyardgrass plant response rating” value ([1]; 125 g ai/ha) was 10. For the same compound, the “Barnyardgrass plant response rating” value ([1]; 250 g ai/ha) was 10, the “Plant response rating, Barnyardgrass” value ([1]; 16 g ai/ha) was 0 and the “Sprangletop, Brdd. plant response rating” value ([2]; 32 g ai/ha) was 0. The “Sprangletop, Brdd. plant response rating” value ([2]; 64 g ai/ha) was 0, the “Sprangletop, Brdd. plant response rating” value ([2]; 125 g ai/ha) was 30 and the “Sprangletop, Brdd. plant response rating” value ([2]; 250 g ai/ha) was 30. For the same compound, the “Ducksalad plant response rating” value ([3]; 32 g ai/ha) was 100, the “Ducksalad plant response rating” value ([3]; 64 g ai/ha) was 100 and the “Ducksalad plant response rating” value ([3]; 125 g ai/ha) was 100. For the same compound, the “Ducksalad plant response rating” value ([3]; 250 g ai/ha) was 100, the “Plant response rating, Ducksalad” value ([3]; 16 g ai/ha) was 100 and the “Watergrass, Early plant response rating” value ([4]; 32 g ai/ha) was 0. The “Watergrass, Early plant response rating” value ([4]; 64 g ai/ha) was 0, the “Watergrass, Early plant response rating” value ([4]; 125 g ai/ha) was 0 and the “Watergrass, Early plant response rating” value ([4]; 250 g ai/ha) was 0. For the same compound, the “Plant response rating, Watergrass, Early” value ([4]; 16 g ai/ha) was 0, the “Junglerice plant response rating” value ([5]; 32 g ai/ha) was 0 and the “Junglerice plant response rating” value ([5]; 64 g ai/ha) was 0. The “Junglerice plant response rating” value ([5]; 125 g ai/ha) was 0, the “Junglerice plant response rating” value ([5]; 250 g ai/ha) was 70 and the “Plant response rating, Junglerice” value ([5]; 16 g ai/ha) was 0. The “Watergrass, Late plant response rating” value ([6]; 32 g ai/ha) was 0, the “Watergrass, Late plant response rating” value ([6]; 64 g ai/ha) was 0 and the “Watergrass, Late plant response rating” value ([6]; 125 g ai/ha) was 0. For the same compound, the “Watergrass, Late plant response rating” value ([6]; 250 g ai/ha) was 0, the “Plant response rating, Watergrass, Late” value ([6]; 16 g ai/ha) was 0 and the “Redstem plant response rating” value ([7]; 32 g ai/ha) was 0. The “Redstem plant response rating” value ([7]; 64 g ai/ha) was 0, the “Redstem plant response rating” value ([7]; 125 g ai/ha) was 30 and the “Redstem plant response rating” value ([7]; 250 g ai/ha) was 50. The “Plant response rating, Redstem” value ([7]; 16 g ai/ha) was 0, the “Sedge, Umbrella plant response rating” value ([8]; 32 g ai/ha) was 0 and the “Sedge, Umbrella plant response rating” value ([8]; 64 g ai/ha) was 30. For the same compound, the “Sedge, Umbrella plant response rating” value ([8]; 125 g ai/ha) was 100, the “Sedge, Umbrella plant response rating” value ([8]; 250 g ai/ha) was 100 and the “Plant response rating, Sedge, Umbrella” value ([8]; 16 g ai/ha) was 0. The “Rice, Transplanted plant response rating” value ([9]; 32 g ai/ha) was 0, the “Rice, Transplanted plant response rating” value ([9]; 64 g ai/ha) was 0 and the “Rice, Transplanted plant response rating” value ([9]; 125 g ai/ha) was 0. The “Rice, Transplanted plant response rating” value ([9]; 250 g ai/ha) was 10, the “Plant response rating, Rice, Transplanted” value ([9]; 16 g ai/ha) was 0 and the “Rice, Water Seeded plant response rating” value ([10]; 32 g ai/ha) was 0. For the same compound, the “Rice, Water Seeded plant response rating” value ([10]; 64 g ai/ha) was 10, the “Rice, Water Seeded plant response rating” value ([10]; 125 g ai/ha) was 10 and the “Rice, Water Seeded plant response rating” value ([10]; 250 g ai/ha) was 20. For the same compound, the “Plant response rating, Rice, Water Seeded” value ([10]; 16 g ai/ha) was 0.
For `COC(=O)c1nc(-c2ccc(C(F)(F)F)cc2)nc(N)c1Cl` [Compound 44], the “Barnyardgrass plant response rating” value ([1]; 32 g ai/ha) was 0, the “Barnyardgrass plant response rating” value ([1]; 64 g ai/ha) was 0 and the “Barnyardgrass plant response rating” value ([1]; 125 g ai/ha) was 0. The “Barnyardgrass plant response rating” value ([1]; 250 g ai/ha) was 0, the “Barnyardgrass plant response rating” value ([1]; 500 g ai/ha) was 10 and the “Sprangletop, Brdd. plant response rating” value ([2]; 32 g ai/ha) was 20. The “Sprangletop, Brdd. plant response rating” value ([2]; 64 g ai/ha) was 30, the “Sprangletop, Brdd. plant response rating” value ([2]; 125 g ai/ha) was 30 and the “Sprangletop, Brdd. plant response rating” value ([2]; 250 g ai/ha) was 50. The “Sprangletop, Brdd. plant response rating” value ([2]; 500 g ai/ha) was 95, the “Ducksalad plant response rating” value ([3]; 32 g ai/ha) was 100 and the “Ducksalad plant response rating” value ([3]; 64 g ai/ha) was 100. For the same compound, the “Ducksalad plant response rating” value ([3]; 125 g ai/ha) was 100, the “Ducksalad plant response rating” value ([3]; 250 g ai/ha) was 100 and the “Ducksalad plant response rating” value ([3]; 500 g ai/ha) was 100. The “Watergrass, Early plant response rating” value ([4]; 32 g ai/ha) was 0, the “Watergrass, Early plant response rating” value ([4]; 64 g ai/ha) was 0 and the “Watergrass, Early plant response rating” value ([4]; 125 g ai/ha) was 0. For the same compound, the “Watergrass, Early plant response rating” value ([4]; 250 g ai/ha) was 0, the “Watergrass, Early plant response rating” value ([4]; 500 g ai/ha) was 0 and the “Junglerice plant response rating” value ([5]; 32 g ai/ha) was 0. For the same compound, the “Junglerice plant response rating” value ([5]; 64 g ai/ha) was 0, the “Junglerice plant response rating” value ([5]; 125 g ai/ha) was 0 and the “Junglerice plant response rating” value ([5]; 250 g ai/ha) was 20. The “Junglerice plant response rating” value ([5]; 500 g ai/ha) was 20, the “Watergrass, Late plant response rating” value ([6]; 32 g ai/ha) was 0 and the “Watergrass, Late plant response rating” value ([6]; 64 g ai/ha) was 0. For the same compound, the “Watergrass, Late plant response rating” value ([6]; 125 g ai/ha) was 0, the “Watergrass, Late plant response rating” value ([6]; 250 g ai/ha) was 0 and the “Watergrass, Late plant response rating” value ([6]; 500 g ai/ha) was 20. For the same compound, the “Redstem plant response rating” value ([7]; 32 g ai/ha) was 0, the “Redstem plant response rating” value ([7]; 64 g ai/ha) was 10 and the “Redstem plant response rating” value ([7]; 125 g ai/ha) was 20. For the same compound, the “Redstem plant response rating” value ([7]; 250 g ai/ha) was 50, the “Redstem plant response rating” value ([7]; 500 g ai/ha) was 75 and the “Sedge, Umbrella plant response rating” value ([8]; 32 g ai/ha) was 20. The “Sedge, Umbrella plant response rating” value ([8]; 64 g ai/ha) was 90, the “Sedge, Umbrella plant response rating” value ([8]; 125 g ai/ha) was 90 and the “Sedge, Umbrella plant response rating” value ([8]; 250 g ai/ha) was 100. For the same compound, the “Sedge, Umbrella plant response rating” value ([8]; 500 g ai/ha) was 100, the “Rice, Transplanted plant response rating” value ([9]; 32 g ai/ha) was 0 and the “Rice, Transplanted plant response rating” value ([9]; 64 g ai/ha) was 0. The “Rice, Transplanted plant response rating” value ([9]; 125 g ai/ha) was 0, the “Rice, Transplanted plant response rating” value ([9]; 250 g ai/ha) was 0 and the “Rice, Transplanted plant response rating” value ([9]; 500 g ai/ha) was 0. The “Rice, Water Seeded plant response rating” value ([10]; 32 g ai/ha) was 0, the “Rice, Water Seeded plant response rating” value ([10]; 64 g ai/ha) was 0 and the “Rice, Water Seeded plant response rating” value ([10]; 125 g ai/ha) was 0. The “Rice, Water Seeded plant response rating” value ([10]; 250 g ai/ha) was 0 and the “Rice, Water Seeded plant response rating” value ([10]; 500 g ai/ha) was 20.
